The values below come from patent US12448461B2, “ABCB5 ligands and substrates” (Children's Medical Center Corporation, priority 2018, dated 2025).

In assay [1] the test system is ABCB5. Briefly: Surface plasmon resonance (SPR) binding and antibody competition on PIP1, PIP2 and PIP3 surfaces.
The test system of assay [2] is Tyr::CreER; BrafCA; Ptenlox/lox genetic mouse melanoma model. Briefly: Vemurafenib treatment in 4-HT inducible genetic mouse melanoma model on ABCB5 WT or KO background. As to conditions: vemurafenib-treated ABCB5 WT mice. Type of assay: in vivo.
Assay [3] has as its target T1, purified recombinant human ABCB5 (Homo sapiens, UniProt Q2M3G0).
T1 sequence (Q2M3G0 1-812 isoform Q2M3G0-1): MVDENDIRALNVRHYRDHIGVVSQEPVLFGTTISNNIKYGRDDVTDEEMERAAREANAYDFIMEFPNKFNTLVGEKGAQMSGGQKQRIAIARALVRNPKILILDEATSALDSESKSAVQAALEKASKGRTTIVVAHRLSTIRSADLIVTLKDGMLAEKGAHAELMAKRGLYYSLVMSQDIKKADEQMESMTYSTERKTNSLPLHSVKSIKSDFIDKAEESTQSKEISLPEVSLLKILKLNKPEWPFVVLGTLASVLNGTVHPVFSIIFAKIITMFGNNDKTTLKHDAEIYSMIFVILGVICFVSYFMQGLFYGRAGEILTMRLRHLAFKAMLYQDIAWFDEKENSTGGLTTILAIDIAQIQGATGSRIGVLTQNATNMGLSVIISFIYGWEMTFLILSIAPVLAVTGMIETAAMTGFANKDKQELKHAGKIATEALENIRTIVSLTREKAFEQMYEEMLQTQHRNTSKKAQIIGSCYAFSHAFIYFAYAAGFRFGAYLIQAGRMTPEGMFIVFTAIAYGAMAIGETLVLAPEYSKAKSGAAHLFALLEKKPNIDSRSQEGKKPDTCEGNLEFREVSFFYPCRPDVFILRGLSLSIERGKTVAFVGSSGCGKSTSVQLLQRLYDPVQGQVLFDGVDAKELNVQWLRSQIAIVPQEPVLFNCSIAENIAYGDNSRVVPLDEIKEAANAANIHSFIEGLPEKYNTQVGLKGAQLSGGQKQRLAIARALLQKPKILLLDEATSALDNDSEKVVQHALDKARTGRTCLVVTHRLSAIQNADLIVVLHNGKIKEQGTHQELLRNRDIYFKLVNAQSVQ
The assay is described as follows: Competition ELISA: PIP1, PIP2 or PIP3 binding to ABCB5 with increasing doses of competitor. The procedure:
ELISA plates coated with PIP1, PIP2 or PIP3 were incubated with purified recombinant human ABCB5 (P-glycoprotein ABCB5 [Homo sapiens] GenBank: AAO73470.1) for binding, in the absence or presence of increasing doses of PtdIns-(1,2-dioctanoyl), a synthetic analog of natural phosphatidylinositol (PtdIns) containing C8:0 fatty acids at the sn-1 and sn-2 positions (CAS Registry Number 899827-36-2).

The target of another assay is T2, murine Abcb5 (Mus musculus, UniProt B5X0E4).
T2 construct: wildtype mouse Abcb5-expressing skin tissue; from tissue; host or cells: wild-type mouse skin tissue
T2 sequence (B5X0E4 1-1255): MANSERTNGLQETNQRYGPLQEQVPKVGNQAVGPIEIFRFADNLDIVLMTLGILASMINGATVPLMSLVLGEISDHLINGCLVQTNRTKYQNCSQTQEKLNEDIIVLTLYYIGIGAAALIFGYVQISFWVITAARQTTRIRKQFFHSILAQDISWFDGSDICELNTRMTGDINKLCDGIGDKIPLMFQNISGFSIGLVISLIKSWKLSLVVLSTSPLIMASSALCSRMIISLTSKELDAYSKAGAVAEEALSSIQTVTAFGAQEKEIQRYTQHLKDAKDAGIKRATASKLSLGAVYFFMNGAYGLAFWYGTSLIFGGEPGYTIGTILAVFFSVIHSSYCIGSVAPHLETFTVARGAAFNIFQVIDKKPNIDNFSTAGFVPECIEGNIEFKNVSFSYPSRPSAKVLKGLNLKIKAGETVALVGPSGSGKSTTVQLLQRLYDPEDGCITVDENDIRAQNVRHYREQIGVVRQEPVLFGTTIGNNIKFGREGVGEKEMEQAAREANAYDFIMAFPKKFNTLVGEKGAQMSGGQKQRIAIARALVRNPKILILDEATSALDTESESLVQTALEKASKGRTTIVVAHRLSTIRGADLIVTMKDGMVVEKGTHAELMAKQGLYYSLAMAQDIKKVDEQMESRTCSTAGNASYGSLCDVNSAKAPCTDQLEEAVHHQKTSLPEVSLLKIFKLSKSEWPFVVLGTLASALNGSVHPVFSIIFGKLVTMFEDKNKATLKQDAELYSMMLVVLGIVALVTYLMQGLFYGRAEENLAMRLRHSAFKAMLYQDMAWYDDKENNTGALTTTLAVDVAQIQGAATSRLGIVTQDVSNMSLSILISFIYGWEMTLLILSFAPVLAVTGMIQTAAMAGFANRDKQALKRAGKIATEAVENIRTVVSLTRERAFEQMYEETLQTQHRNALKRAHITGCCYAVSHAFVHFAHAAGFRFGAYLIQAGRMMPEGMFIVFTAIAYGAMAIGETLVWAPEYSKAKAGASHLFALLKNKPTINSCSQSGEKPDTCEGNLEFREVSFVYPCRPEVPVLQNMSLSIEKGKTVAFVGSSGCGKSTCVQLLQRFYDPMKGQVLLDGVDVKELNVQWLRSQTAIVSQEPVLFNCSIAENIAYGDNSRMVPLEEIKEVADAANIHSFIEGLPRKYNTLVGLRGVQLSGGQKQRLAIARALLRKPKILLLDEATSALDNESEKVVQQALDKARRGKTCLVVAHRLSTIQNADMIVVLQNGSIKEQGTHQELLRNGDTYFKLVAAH
Briefly: ELISA: plates coated with PIP1, PIP2 or PIP3 incubated with wildtype mouse Abcb5-expressing skin tissue. Type of assay: binding. As to conditions: absent in Abcb5 knockout tissue. As to the method:
(§1) ELISA plates coated with PIP1, PIP2 or PIP3 were incubated with either purified recombinant human ABCB5 isoform 2 (812 aa, NCBI Reference Sequence: NP_848654.3), wildtype mouse Abcb5-expressing skin tissue, or Abcb5 non-expressing skin tissue derived from ABCB5 knockout mice (as a specificity control), followed by bound ABCB5 detection using a murine ABCB5-specific monoclonal antibody (Ksander et al Nature 2014). […] Similar results were obtained using the murine ABCB5 mAb clone 3C2-1D12 (Frank NY et al. J Biol Chem. 2003) as a detection antibody.
(In general: ELISA stands for enzyme-linked immunosorbent assay.)

For assay [4], the target named is T3, recombinant human ABCB5 isoform 2 (Homo sapiens, UniProt Q2M3G0).
T3 sequence (Q2M3G0 446-1257): T1 sequence (Q2M3G0 1-812 isoform Q2M3G0-1)
Briefly: ELISA: plates coated with PIP1, PIP2 or PIP3 incubated with recombinant human ABCB5 isoform 2. Type of assay: binding. The procedure: as §1

The target of assay [5] is T4, ABCB5 (Homo sapiens, UniProt Q2M3G0).
T4 construct: Immunoprecipitation from human ABCB5-expressing melanoma cells; endogenous in cells
T4 sequence (Q2M3G0 1-1257): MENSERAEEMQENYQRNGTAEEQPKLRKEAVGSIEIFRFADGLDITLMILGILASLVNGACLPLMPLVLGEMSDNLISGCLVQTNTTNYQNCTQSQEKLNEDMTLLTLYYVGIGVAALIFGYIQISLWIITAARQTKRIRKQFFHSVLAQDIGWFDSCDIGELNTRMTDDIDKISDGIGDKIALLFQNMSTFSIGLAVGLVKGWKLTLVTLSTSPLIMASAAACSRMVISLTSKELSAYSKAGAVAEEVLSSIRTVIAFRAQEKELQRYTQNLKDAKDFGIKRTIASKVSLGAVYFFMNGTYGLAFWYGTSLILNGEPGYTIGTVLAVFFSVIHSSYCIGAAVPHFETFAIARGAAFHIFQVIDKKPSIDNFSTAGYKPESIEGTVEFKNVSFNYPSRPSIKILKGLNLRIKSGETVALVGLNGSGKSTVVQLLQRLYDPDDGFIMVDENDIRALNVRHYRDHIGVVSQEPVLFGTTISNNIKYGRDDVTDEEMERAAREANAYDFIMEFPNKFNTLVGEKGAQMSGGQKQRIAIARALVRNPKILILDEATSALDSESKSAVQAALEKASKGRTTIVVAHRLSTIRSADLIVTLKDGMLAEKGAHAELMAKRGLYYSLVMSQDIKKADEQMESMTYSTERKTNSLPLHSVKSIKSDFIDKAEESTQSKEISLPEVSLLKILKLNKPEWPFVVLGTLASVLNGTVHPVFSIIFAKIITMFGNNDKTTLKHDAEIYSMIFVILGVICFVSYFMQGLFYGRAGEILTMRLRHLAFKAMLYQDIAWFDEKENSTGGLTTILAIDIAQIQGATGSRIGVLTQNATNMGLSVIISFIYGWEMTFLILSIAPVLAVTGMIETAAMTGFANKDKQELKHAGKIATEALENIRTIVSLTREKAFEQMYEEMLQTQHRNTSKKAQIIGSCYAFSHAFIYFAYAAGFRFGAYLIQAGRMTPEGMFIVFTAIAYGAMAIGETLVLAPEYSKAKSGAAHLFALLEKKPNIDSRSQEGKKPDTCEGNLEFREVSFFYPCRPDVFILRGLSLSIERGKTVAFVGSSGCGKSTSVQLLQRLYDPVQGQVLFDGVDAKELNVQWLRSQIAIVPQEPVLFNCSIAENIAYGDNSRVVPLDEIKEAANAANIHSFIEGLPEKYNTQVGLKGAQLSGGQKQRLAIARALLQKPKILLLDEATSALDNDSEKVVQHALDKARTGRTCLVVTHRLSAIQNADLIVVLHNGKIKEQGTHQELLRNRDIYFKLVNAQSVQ
The assay is described as follows: Immunoprecipitation with anti-PIP2 or anti-PIP3 antibody from ABCB5-expressing melanoma cells, ABCB5 immunoblot. Type of assay: binding. The text has this:
PIP2 pulldown was confirmed using immunoblotting with PIP2 antibody in FIG. 1A (lower panel).

Consider `CCCCCCCC(=O)OC[C@H](COP(=O)(O)O[C@@H]1[C@H](O)[C@H](O)[C@@H](OP(=O)(O)O)[C@H](OP(=O)(O)O)[C@H]1O)OC(=O)CCCCCCC` [PI (4,5) P2, diC8], for which, in the assay with ABCB5 [1], the “binding to ABCB5 by SPR” value is recorded as “shown to bind”.

Regarding `CCCS(=O)(=O)Nc1ccc(F)c(C(=O)c2c[nH]c3ncc(-c4ccc(Cl)cc4)cc23)c1F` [vemurafenib], the “formation of vemurafenib-resistant tumors” value in assay [2] came out at 100%.

For `CCCCCCCC(=O)OCC(COP(=O)(O)OC1C(O)C(O)C(O)C(O)C1O)OC(=O)CCCCCCC` (stereo not drawn) [PtdIns-(1,2-dioctanoyl)], in assay [3] (increasing doses), the “inhibition of binding of PIP1, PIP2 or PIP3 to ABCB5” value is “competitively inhibit”. The “concentration of apparent saturation of the inhibitory effect” value in assay [3] (inhibition of PIP1, PIP2 or PIP3 binding to ABCB5) is listed as 0.1 mM.

For the compound PIP3, the “binding to murine Abcb5” value on murine Abcb5 is given as “bound”. The “relative efficiency of binding to ABCB5” value in assay [4] (PIP2 and PIP3 compared with PIP1) is reported as “more efficient”. Further, the “binding to recombinant human ABCB5” value in assay [4] (detection with ABCB5-specific monoclonal antibody) was “bound”. In addition, the “binding to ABCB5 by SPR” value in the assay with ABCB5 [1] is given as “binding”. The “co-precipitation of ABCB5 on lipid pulldown” value at ABCB5 [5] is reported as “co-precipitation of ABCB5 protein”.
